Data reported in PubChem BioAssay AID1259407 (Chemical Carcinogenesis Research Information System (CCRIS), 2018).
Active and inactive are the calls of the source. No rule for the calls is given here.

Tested on: CCRIS mutagenicity, Ames/micronucleus/aberration tests
Assay: CCRIS mutagenicity studies
[1] = Test System: AMES SALMONELLA TYPHIMURIUM, Strain/Indicator: TA98, Metabolic Activation: NONE, Method: STANDARD PLATE
[2] = Test System: AMES SALMONELLA TYPHIMURIUM, Strain/Indicator: TA100, Metabolic Activation: NONE, Method: STANDARD PLATE
[3] = Test System: AMES SALMONELLA TYPHIMURIUM, Strain/Indicator: TA100, Metabolic Activation: NONE, Method: PREINCUBATION
[4] = Test System: AMES SALMONELLA TYPHIMURIUM, Strain/Indicator: TA102, Metabolic Activation: NONE, Method: STANDARD PLATE
[5] = Test System: AMES SALMONELLA TYPHIMURIUM, Strain/Indicator: TA1535, Metabolic Activation: NONE, Method: STANDARD PLATE

## BrCc1ccccc1CBr
[1]
  mutagenic call: inactive; negative
[2]
  mutagenic call: inactive; negative

## CCN(CC)C(=O)/C(Cl)=C(\C)OP(=O)(OC)OC
End Point: IN VITRO CHROMOSOMAL ABERRATIONS, Test System: HUMAN PERIPHERAL BLOOD LYMPHOCYTES, Metabolic Activation: NONE
  mutagenic call: active; positive (structural changes)
Test System: AMES SALMONELLA TYPHIMURIUM, Strain/Indicator: G46, Metabolic Activation: HOST-MEDIATED, Method: STANDARD PLATE
  mutagenic call: active; positive
Test System: AMES SALMONELLA TYPHIMURIUM, Strain/Indicator: TA97A, Metabolic Activation: NONE, Method: STANDARD PLATE
  mutagenic call: inactive; negative
Test System: AMES SALMONELLA TYPHIMURIUM, Strain/Indicator: TA97A, Metabolic Activation: PLANT, HOMOGENATE, S-14, Method: STANDARD PLATE
  mutagenic call: inactive; negative
Test System: AMES SALMONELLA TYPHIMURIUM, Strain/Indicator: TA97A, Metabolic Activation: S-9, Method: STANDARD PLATE
  mutagenic call: inactive; negative
[1]
  mutagenic call: inactive; negative
Test System: AMES SALMONELLA TYPHIMURIUM, Strain/Indicator: TA98, Metabolic Activation: PLANT, HOMOGENATE, S-14, Method: STANDARD PLATE
  mutagenic call: inactive; negative
Test System: AMES SALMONELLA TYPHIMURIUM, Strain/Indicator: TA98, Metabolic Activation: S-9, Method: STANDARD PLATE
  mutagenic call: inactive; negative
[3]
  mutagenic call: active; positive
Test System: AMES SALMONELLA TYPHIMURIUM, Strain/Indicator: TA100, Metabolic Activation: PLANT, HOMOGENATE, S-14, Method: STANDARD PLATE
  mutagenic call: inactive; negative
Test System: AMES SALMONELLA TYPHIMURIUM, Strain/Indicator: TA100, Metabolic Activation: S-9, Method: STANDARD PLATE
  mutagenic call: inactive; negative
[4]
  mutagenic call: inactive; negative
Test System: AMES SALMONELLA TYPHIMURIUM, Strain/Indicator: TA104, Metabolic Activation: NONE, Method: STANDARD PLATE
  mutagenic call: inactive; negative
[5]
  mutagenic call: inactive; negative
Test System: AMES SALMONELLA TYPHIMURIUM, Strain/Indicator: TA1535, Metabolic Activation: PLANT, HOMOGENATE, S-14, Method: STANDARD PLATE
  mutagenic call: inactive; negative
Test System: AMES SALMONELLA TYPHIMURIUM, Strain/Indicator: TA1535, Metabolic Activation: S-9, Method: STANDARD PLATE
  mutagenic call: inactive; negative

## COC(=O)[C@@H](C)Cl
[3]
  mutagenic call: active; positive
Test System: AMES SALMONELLA TYPHIMURIUM, Strain/Indicator: TA100, Metabolic Activation: RAT, LIVER, S-9, PCB, Method: PREINCUBATION
  mutagenic call: active; positive

## c1ccc(CN2C3c4ccccc4-c4ccccc4C32)cc1 (stereo not drawn)
[2]
  mutagenic call: active; positive

## COCCl
End Point: IN VITRO CHROMOSOMAL ABERRATIONS, Test System: CHL CELLS, Metabolic Activation: NONE
  mutagenic call: active; positive (structural and ploidy changes)
End Point: IN VITRO CHROMOSOMAL ABERRATIONS, Test System: CHL CELLS, Metabolic Activation: RAT, LIVER, S-9, SODIUM PHENOBARBITAL AND 5,6-BENZOFLAVONE
  mutagenic call: active; positive (structural changes)

## CCOC(=O)CNC(=O)C(C)(C)Br
Test System: AMES SALMONELLA TYPHIMURIUM, Strain/Indicator: TA100, Metabolic Activation: MOUSE, LIVER, S-9, AROCLOR 1254, Method: STANDARD PLATE
  mutagenic call: inactive; negative
[2]
  mutagenic call: inactive; negative

## Nc1c(Br)cc(Br)c2c1C(=O)c1ccccc1C2=O
End Point: IN VITRO CHROMOSOMAL ABERRATIONS, Test System: CHO-LB CELLS, Metabolic Activation: NONE
  mutagenic call: inactive; negative
End Point: IN VITRO CHROMOSOMAL ABERRATIONS, Test System: CHO-LB CELLS, Metabolic Activation: RAT, LIVER, S-9, AROCLOR 1254
  mutagenic call: inactive; negative
Test System: AMES SALMONELLA TYPHIMURIUM, Strain/Indicator: TA98, Metabolic Activation: HAMSTER, LIVER, S-9, AROCLOR 1254 (10%), Method: PREINCUBATION
  mutagenic call: inactive; negative
Test System: AMES SALMONELLA TYPHIMURIUM, Strain/Indicator: TA98, Metabolic Activation: HAMSTER, LIVER, S-9, AROCLOR 1254, Method: PREINCUBATION
  mutagenic call: inactive; negative
Test System: AMES SALMONELLA TYPHIMURIUM, Strain/Indicator: TA98, Metabolic Activation: NONE, Method: PREINCUBATION
  mutagenic call: active; positive
Test System: AMES SALMONELLA TYPHIMURIUM, Strain/Indicator: TA98, Metabolic Activation: RAT, LIVER, S-9, AROCLOR 1254 (10%), Method: PREINCUBATION
  mutagenic call: inactive; negative
Test System: AMES SALMONELLA TYPHIMURIUM, Strain/Indicator: TA98, Metabolic Activation: RAT, LIVER, S-9, AROCLOR 1254, Method: PREINCUBATION
  mutagenic call: inactive; negative
Test System: AMES SALMONELLA TYPHIMURIUM, Strain/Indicator: TA100, Metabolic Activation: HAMSTER, LIVER, S-9, AROCLOR 1254, Method: PREINCUBATION
  mutagenic call: inactive; negative
[3]
  mutagenic call: inactive; negative
Test System: AMES SALMONELLA TYPHIMURIUM, Strain/Indicator: TA100, Metabolic Activation: RAT, LIVER, S-9, AROCLOR 1254, Method: PREINCUBATION
  mutagenic call: inactive; negative
Test System: AMES SALMONELLA TYPHIMURIUM, Strain/Indicator: TA1535, Metabolic Activation: HAMSTER, LIVER, S-9, AROCLOR 1254 (10%), Method: PREINCUBATION
  mutagenic call: inactive; negative
Test System: AMES SALMONELLA TYPHIMURIUM, Strain/Indicator: TA1535, Metabolic Activation: HAMSTER, LIVER, S-9, AROCLOR 1254, Method: PREINCUBATION
  mutagenic call: inactive; negative
Test System: AMES SALMONELLA TYPHIMURIUM, Strain/Indicator: TA1535, Metabolic Activation: NONE, Method: PREINCUBATION
  mutagenic call: inactive; negative
Test System: AMES SALMONELLA TYPHIMURIUM, Strain/Indicator: TA1535, Metabolic Activation: RAT, LIVER, S-9, AROCLOR 1254 (10%), Method: PREINCUBATION
  mutagenic call: inactive; negative
Test System: AMES SALMONELLA TYPHIMURIUM, Strain/Indicator: TA1535, Metabolic Activation: RAT, LIVER, S-9, AROCLOR 1254, Method: PREINCUBATION
  mutagenic call: inactive; negative
Test System: AMES SALMONELLA TYPHIMURIUM, Strain/Indicator: TA1537, Metabolic Activation: HAMSTER, LIVER, S-9, AROCLOR 1254, Method: PREINCUBATION
  mutagenic call: inactive; negative
Test System: AMES SALMONELLA TYPHIMURIUM, Strain/Indicator: TA1537, Metabolic Activation: NONE, Method: PREINCUBATION
  mutagenic call: active; positive
Test System: AMES SALMONELLA TYPHIMURIUM, Strain/Indicator: TA1537, Metabolic Activation: RAT, LIVER, S-9, AROCLOR 1254, Method: PREINCUBATION
  mutagenic call: active; positive

## OOC1CCCc2ccccc21 (stereo not drawn)
[1]
  mutagenic call: inactive; negative
[2]
  mutagenic call: active; positive
[4]
  mutagenic call: inactive; negative

## OC[C@@H](O)[C@@H](O)CO
[1]
  mutagenic call: inactive; negative
Test System: AMES SALMONELLA TYPHIMURIUM, Strain/Indicator: TA98, Metabolic Activation: RAT, LIVER, S-9, Method: STANDARD PLATE
  mutagenic call: inactive; negative
[2]
  mutagenic call: inactive; negative
Test System: AMES SALMONELLA TYPHIMURIUM, Strain/Indicator: TA100, Metabolic Activation: RAT, LIVER, S-9, Method: STANDARD PLATE
  mutagenic call: inactive; negative
[5]
  mutagenic call: inactive; negative
Test System: AMES SALMONELLA TYPHIMURIUM, Strain/Indicator: TA1535, Metabolic Activation: RAT, LIVER, S-9, Method: STANDARD PLATE
  mutagenic call: inactive; negative
Test System: AMES SALMONELLA TYPHIMURIUM, Strain/Indicator: TA1537, Metabolic Activation: NONE, Method: STANDARD PLATE
  mutagenic call: inactive; negative
Test System: AMES SALMONELLA TYPHIMURIUM, Strain/Indicator: TA1537, Metabolic Activation: RAT, LIVER, S-9, Method: STANDARD PLATE
  mutagenic call: inactive; negative
Test System: E. COLI, Strain/Indicator: WP2 UVRA, Metabolic Activation: NONE, Method: STANDARD PLATE
  mutagenic call: inactive; negative
Test System: E. COLI, Strain/Indicator: WP2 UVRA, Metabolic Activation: RAT, LIVER, S-9, Method: STANDARD PLATE
  mutagenic call: inactive; negative

## CC(=O)c1ccc[nH]1
[2]
  mutagenic call: inactive; negative
Test System: AMES SALMONELLA TYPHIMURIUM, Strain/Indicator: TA100, Metabolic Activation: RAT, LIVER, S-9, AROCLOR 1254, Method: STANDARD PLATE
  mutagenic call: inactive; negative
